Measured values published in patent publication US20150208649A1, “NOVEL COMPOSITIONS COMPRISING P-HYDROXYBENZYLAMINE” (DSM IP ASSETS B.V., priority 2012, published 2015).
Values after ≈ are worked out from the molar mass of the structure shown.

Columns and labels:
Assay in all cases: MIC, agar dilution method according to DIN 58 940
Type in all cases: cell-based
[1] = system: Aspergillus brasiliensis (A. brasiliensis) ATCC 16404; settings: for MIC mix: 78 h; for ratio [MIC (single)/(MIC (mixture)]): >1 indicates a synergistic effect; for MIC: Aspergillus brasiliensis, ATCC16404, single compound
Method: (§1) The antimicrobial activity was assessed by determination of the Minimum Inhibitory Concentration (MIC) using the agar dilution method according to DIN 58 940 at the Labor L+SAG, D-Bad Bocklet-Grossenbrach.
(§2) Culture plates with a diameter of 5.5 cm were prepared with fresh, kept liquid (50° C.) Mueller-Hinton Agar (double concentrated, Merck 1.05437)/aqua purificata comprising the compound/compound mixtures in the concentrations indicated in Table 1 according to standard methods. After solidifying and drying (about 1 h at 36° C.), the culture plates were inoculated with 1 μl of a suspension of the respective microorganism with the colony forming unit as outlined in table 1. The inoculated plates were then incubated at 36° C. The MIC's (i.e. the concentrations where still no growth could be observed) were determined after 18 h for E. coli, P. aeruginosa and S. aureus; after 48 h for P. acnes and after 78 h for A. brasiliensis and C. albicans. Per sample two culture plates were prepared. As control incubated and non-incubated cultures were used.
(§3) The suspensions of the microorganisms No. 1-4 were prepared by homogeneous suspension of 3-5 colonies of the same morphology in physiological NaCl-solution. The suspensions were adjusted such, that the haze corresponded to the Mac Farland standard 1.0 (about 3.0*10^8 KBE*/ml). For the preparation of the suspensions of the microorganisms 5 and 6, the microorganisms have been taken with a sterile swab and diluted in an amount of physiological NaCl solution such, that the haze corresponded to the Mac Farland standard 1.0. Afterwards the suspensions of the microorganisms 1 and 3-6 have been further diluted with physiological NaCl-solution in a ratio of 1:10. The colony count was determined using a spiral plater system (see table 2).

[2] = system: Candida albicans (C. albicans) ATCC 10231; settings: for MIC mix: 78 h; for ratio [MIC (single)/(MIC (mixture)]): >1 indicates a synergistic effect; for MIC: Candida albicans, ATCC10231, single compound
Method: as §1, §2, §3

[3] = system: Escherichia coli (E. coli) ATCC 8739; settings: for MIC mix: 18 h; for ratio [MIC (single)/(MIC (mixture)]): >1 indicates a synergistic effect; for MIC: Escherichia coli, ATCC8739, single compound
Method: as §1, §2, §3

[4] = system: Propionibacterium acnes (P. acnes) ATCC 11828; settings: for MIC: Cutibacterium acnes, ATCC11828, single compound; for MIC mix: 48 h; for ratio [MIC (single)/(MIC (mixture)]): >1 indicates a synergistic effect
Method: as §1, §2, §3

[5] = system: Pseudomonas aeruginosa (P. aeruginosa) ATCC 9027; settings: for MIC mix: 18 h; for ratio [MIC (single)/(MIC (mixture)]): >1 indicates a synergistic effect; for MIC: Pseudomonas aeruginosa, ATCC9027, single compound
Method: as §1, §2, §3

[6] = system: Staphylococcus aureus (S. aureus) ATCC 6538; settings: for MIC mix: 18 h; for ratio [MIC (single)/(MIC (mixture)]): >1 indicates a synergistic effect; for MIC: Staphylococcus aureus, ATCC6538, single compound
Method: as §1, §2, §3

[7] = concentration of the component in mixture pHBA/MI
[8] = single compound, 78 h at 36° C.
[9] = single compound, 18 h at 36° C.
[10] = concentration of the component in mixture pHBA/MP
[11] = concentration of the component in mixture pHBA/PE

In the case of `Cn1sccc1=O` [MI, Methylisothiazolinone, reference compound], the MIC mix [1, 7] is reported as 20 µg/mL (≈ 0.174 mM), the “ratio [MIC (single)/(MIC (mixture)])” value ([1]; mixture pHBA/MI) is reported as 1.50 and the MIC single [1, 8] is reported as 30 µg/mL (≈ 0.261 mM). The MIC mix [2, 7] was 20 µg/mL (≈ 0.174 mM), the “ratio [MIC (single)/(MIC (mixture)])” value ([2]; mixture pHBA/MI) was 1.50 and the MIC single [2, 8] was 30 µg/mL (≈ 0.261 mM). For the same molecule, the MIC mix [3, 7] was 20 µg/mL (≈ 0.174 mM), the “ratio [MIC (single)/(MIC (mixture)])” value ([3]; mixture pHBA/MI) was 1.00 and the MIC single [3, 9] was 20 µg/mL (≈ 0.174 mM). For the same molecule, the MIC single ([4]; single compound, 48 h at 36° C.) was 30 µg/mL (≈ 0.261 mM), the MIC mix [5, 7] was <10 µg/mL and the “ratio [MIC (single)/(MIC (mixture)])” value ([5]; mixture pHBA/MI) was >100. For the same molecule, the MIC single [5, 9] was 40 µg/mL (≈ 0.347 mM), the MIC mix [6, 7] was 40 µg/mL (≈ 0.347 mM) and the “ratio [MIC (single)/(MIC (mixture)])” value ([6]; mixture pHBA/MI) was 1.75. It also gave an MIC single [6, 9] of 70 µg/mL (≈ 0.608 mM).
With `COC(=O)c1ccc(O)cc1` [MP, Methylparabene, reference compound] the MIC ([1]; 78 h at 36° C.) was 390 µg/mL (≈ 2.56 mM), the MIC mix [1, 10] was 260 µg/mL (≈ 1.71 mM) and the “ratio [MIC (single)/(MIC (mixture)])” value ([1]; mixture pHBA/MP) was 1.50. For the same molecule, the MIC ([2]; 78 h at 36° C.) was 590 µg/mL (≈ 3.88 mM), the MIC mix [2, 10] was 390 µg/mL (≈ 2.56 mM) and the “ratio [MIC (single)/(MIC (mixture)])” value ([2]; mixture pHBA/MP) was 1.51. For the same molecule, the MIC ([3]; 18 h at 36° C.) was 890 µg/mL (≈ 5.85 mM), the MIC mix [3, 10] was 390 µg/mL (≈ 2.56 mM) and the “ratio [MIC (single)/(MIC (mixture)])” value ([3]; mixture pHBA/MP) was 2.28. The MIC ([4]; 48 h at 36° C.) was 1330 µg/mL (≈ 8.74 mM), the MIC mix [4, 7] was <10 µg/mL and the MIC mix [4, 10] was 890 µg/mL (≈ 5.85 mM). The “ratio [MIC (single)/(MIC (mixture)])” value ([4]; mixture pHBA/MI) was >100, the “ratio [MIC (single)/(MIC (mixture)])” value ([4]; mixture pHBA/MP) was 1.49 and the MIC ([5]; 18 h at 36° C.) was 2000 µg/mL (≈ 13.1 mM). For the same molecule, the MIC mix [5, 10] was 590 µg/mL (≈ 3.88 mM), the “ratio [MIC (single)/(MIC (mixture)])” value ([5]; mixture pHBA/MP) was 3.39 and the MIC ([6]; 18 h at 36° C.) was 2000 µg/mL (≈ 13.1 mM). For the same molecule, the MIC mix [6, 10] was 890 µg/mL (≈ 5.85 mM) and the “ratio [MIC (single)/(MIC (mixture)])” value ([6]; mixture pHBA/MP) was 2.25.
In the case of `NCc1ccc(O)cc1` [pHBA, p-Hydroxybenzylamine], the MIC ([1]; 78 h at 36° C.) is reported as 5270 µg/mL (≈ 42.8 mM), the MIC mix [1, 7] is reported as 980 µg/mL (≈ 7.96 mM) and the MIC mix [1, 10] is reported as 1050 µg/mL (≈ 8.53 mM). For the same molecule, the MIC mix [1, 11] was 2340 µg/mL (≈ 19 mM), the “ratio [MIC (single)/(MIC (mixture)])” value ([1]; mixture pHBA/MI) was 5.38 and the “ratio [MIC (single)/(MIC (mixture)])” value ([1]; mixture pHBA/MP) was 5.02. The “ratio [MIC (single)/(MIC (mixture)])” value ([1]; mixture pHBA/PE) was 2.25, the MIC ([2]; 78 h at 36° C.) was 5270 µg/mL (≈ 42.8 mM) and the MIC mix [2, 7] was 980 µg/mL (≈ 7.96 mM). For the same molecule, the MIC mix [2, 10] was 1580 µg/mL (≈ 12.8 mM), the MIC mix [2, 11] was 2340 µg/mL (≈ 19 mM) and the “ratio [MIC (single)/(MIC (mixture)])” value ([2]; mixture pHBA/MI) was 5.38. The “ratio [MIC (single)/(MIC (mixture)])” value ([2]; mixture pHBA/MP) was 3.34, the “ratio [MIC (single)/(MIC (mixture)])” value ([2]; mixture pHBA/PE) was 2.25 and the MIC ([3]; 18 h at 36° C.) was 5270 µg/mL (≈ 42.8 mM). For the same molecule, the MIC mix [3, 7] was 980 µg/mL (≈ 7.96 mM), the MIC mix [3, 10] was 1580 µg/mL (≈ 12.8 mM) and the MIC mix [3, 11] was 3510 µg/mL (≈ 28.5 mM). The “ratio [MIC (single)/(MIC (mixture)])” value ([3]; mixture pHBA/MI) was 5.38, the “ratio [MIC (single)/(MIC (mixture)])” value ([3]; mixture pHBA/MP) was 3.34 and the “ratio [MIC (single)/(MIC (mixture)])” value ([3]; mixture pHBA/PE) was 1.50. The MIC ([4]; 48 h at 36° C.) was 7900 µg/mL (≈ 64.1 mM), the MIC mix [4, 7] was 650 µg/mL (≈ 5.28 mM) and the MIC mix [4, 10] was 3560 µg/mL (≈ 28.9 mM). The MIC mix [4, 11] was 5270 µg/mL (≈ 42.8 mM), the “ratio [MIC (single)/(MIC (mixture)])” value ([4]; mixture pHBA/MI) was 12.15 and the “ratio [MIC (single)/(MIC (mixture)])” value ([4]; mixture pHBA/MP) was 2.22. The “ratio [MIC (single)/(MIC (mixture)])” value ([4]; mixture pHBA/PE) was 1.50, the MIC ([5]; 18 h at 36° C.) was 5270 µg/mL (≈ 42.8 mM) and the MIC mix [5, 7] was 650 µg/mL (≈ 5.28 mM). For the same molecule, the MIC mix [5, 10] was 2400 µg/mL (≈ 19.5 mM), the MIC mix [5, 11] was 3510 µg/mL (≈ 28.5 mM) and the “ratio [MIC (single)/(MIC (mixture)])” value ([5]; mixture pHBA/MI) was 8.11. For the same molecule, the “ratio [MIC (single)/(MIC (mixture)])” value ([5]; mixture pHBA/MP) was 2.20, the “ratio [MIC (single)/(MIC (mixture)])” value ([5]; mixture pHBA/PE) was 1.50 and the MIC ([6]; 18 h at 36° C.) was 5270 µg/mL (≈ 42.8 mM). For the same molecule, the MIC mix [6, 7] was 2200 µg/mL (≈ 17.9 mM), the MIC mix [6, 10] was 3560 µg/mL (≈ 28.9 mM) and the MIC mix [6, 11] was 7900 µg/mL (≈ 64.1 mM). The “ratio [MIC (single)/(MIC (mixture)])” value ([6]; mixture pHBA/MI) was 2.4, the “ratio [MIC (single)/(MIC (mixture)])” value ([6]; mixture pHBA/MP) was 1.48 and the “ratio [MIC (single)/(MIC (mixture)])” value ([6]; mixture pHBA/PE) was 0.67.
